Results taken from ChEMBL document CHEMBL5346973 (J Med Chem, 2023).
pIC50: −log10 of the molar value. Where a SMILES comes first, the peptide text is derived from it.

How the values were obtained:
[1] = molecular target: Nicotinic acetylcholine receptor alpha9/alpha10 (Rattus norvegicus, UniProt P43144+Q9JLB5); test: Antagonist activity at rat alpha9alpha10 nACh receptor expressed in Xenopus oocyte assessed as inhibition of acetylcholine-induced response at -70 mV holding potential by voltage-clamp based electrophysiological assay; format: cell-based
[2] = molecular target: Neuronal acetylcholine receptor subunit alpha-7 (Rattus norvegicus, UniProt Q05941); test: Antagonist activity at rat alpha7 nACh receptor expressed in Xenopus oocyte assessed as inhibition of acetylcholine-induced response at -70 mV holding potential by voltage-clamp based electrophysiological assay; format: cell-based
Neuronal acetylcholine receptor subunit alpha-7, sequence (Q05941 whole entry): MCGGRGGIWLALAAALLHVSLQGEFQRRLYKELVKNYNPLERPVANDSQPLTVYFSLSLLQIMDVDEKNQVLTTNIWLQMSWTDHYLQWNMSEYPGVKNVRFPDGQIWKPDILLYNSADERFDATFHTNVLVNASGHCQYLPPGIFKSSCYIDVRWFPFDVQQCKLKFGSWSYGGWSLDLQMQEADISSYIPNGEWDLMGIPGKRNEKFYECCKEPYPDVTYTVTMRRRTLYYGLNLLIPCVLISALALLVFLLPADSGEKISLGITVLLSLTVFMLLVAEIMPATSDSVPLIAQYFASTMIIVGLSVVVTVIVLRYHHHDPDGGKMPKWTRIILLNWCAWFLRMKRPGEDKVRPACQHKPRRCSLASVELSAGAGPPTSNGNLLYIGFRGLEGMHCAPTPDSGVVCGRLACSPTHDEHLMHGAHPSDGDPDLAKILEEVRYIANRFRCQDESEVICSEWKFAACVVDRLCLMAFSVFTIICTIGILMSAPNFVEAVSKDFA

Nicotinic acetylcholine receptor alpha9/alpha10, sequence (P43144 whole entry): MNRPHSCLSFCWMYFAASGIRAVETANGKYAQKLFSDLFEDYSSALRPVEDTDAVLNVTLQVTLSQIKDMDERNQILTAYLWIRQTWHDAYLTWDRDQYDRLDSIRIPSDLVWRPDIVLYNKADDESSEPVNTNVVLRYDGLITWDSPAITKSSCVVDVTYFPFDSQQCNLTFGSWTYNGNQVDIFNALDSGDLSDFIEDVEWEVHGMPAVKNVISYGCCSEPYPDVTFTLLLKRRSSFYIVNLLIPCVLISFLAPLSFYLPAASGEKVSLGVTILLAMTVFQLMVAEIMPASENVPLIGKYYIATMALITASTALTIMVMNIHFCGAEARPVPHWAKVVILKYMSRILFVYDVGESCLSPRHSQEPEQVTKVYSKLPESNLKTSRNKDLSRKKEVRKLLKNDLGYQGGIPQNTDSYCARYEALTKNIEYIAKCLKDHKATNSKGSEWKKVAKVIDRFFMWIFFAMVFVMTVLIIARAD
Nicotinic acetylcholine receptor alpha9/alpha10, sequence (Q9JLB5 whole entry): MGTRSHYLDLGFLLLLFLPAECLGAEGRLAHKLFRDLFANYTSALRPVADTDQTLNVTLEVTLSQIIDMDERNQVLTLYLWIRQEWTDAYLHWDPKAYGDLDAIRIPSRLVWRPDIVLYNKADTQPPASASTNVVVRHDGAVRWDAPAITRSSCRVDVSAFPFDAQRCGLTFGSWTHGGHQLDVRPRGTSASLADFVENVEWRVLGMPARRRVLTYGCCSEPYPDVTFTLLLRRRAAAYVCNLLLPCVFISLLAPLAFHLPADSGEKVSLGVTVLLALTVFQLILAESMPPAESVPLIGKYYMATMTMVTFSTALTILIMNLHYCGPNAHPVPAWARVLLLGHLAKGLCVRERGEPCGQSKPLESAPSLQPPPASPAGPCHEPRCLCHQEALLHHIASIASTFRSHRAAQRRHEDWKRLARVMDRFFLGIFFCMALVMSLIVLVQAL

Compound	pIC50 [1]	pIC50 [2]
CC(C)[C@H](NC(=O)[C@@H]1CSSC[C@H](NC(=O)[C@H](Cc2ccc(O)cc2)NC(=O)[C@H](CCCNC(=N)N)NC(=O)[C@H](CCCNC(=N)N)NC(=O)[C@H](CCCNC(=N)N)NC(=O)[C@H](CCCNC(=N)N)NC(=O)[C@H](CC(=O)O)NC(=O)[C@H](Cc2ccc(O)cc2)NC(=O)[C@@H]2CCCN2C(=O)[C@H](CO)NC(=O)[C@H](CCCNC(=N)N)NC(=O)[C@@H]2CSSC[C@H](NC(=O)[C@@H](N)[C@@H](C)O)C(=O)N[C@@H](CCCNC(=N)N)C(=O)N[C@@H](CO)C(=O)N[C@@H](CO)C(=O)NCC(=O)N[C@@H](CCCNC(=N)N)C(=O)N[C@@H](Cc3ccc(O)cc3)C(=O)N2)C(=O)N[C@@H](CCCNC(=N)N)C(=O)N[C@@H](CCCNC(=N)N)C(=O)N[C@@H](C)C(=O)N[C@@H]([C@@H](C)O)C(=O)N[C@@H](CC(=O)O)C(=O)N[C@@H](C)C(=O)N1)C(=O)O	7.80	6.19
CC[C@H](C)[C@@H]1NC(=O)[C@H](CCCNC(=N)N)NC(=O)[C@H](C)NC(=O)[C@@H](NC(=O)[C@H](Cc2ccc(O)cc2)NC(=O)[C@H](CCCNC(=N)N)NC(=O)[C@H](CCCNC(=N)N)NC(=O)[C@H](CCCNC(=N)N)NC(=O)[C@H](CCCNC(=N)N)NC(=O)[C@H](CC(=O)O)NC(=O)[C@H](Cc2ccc(O)cc2)NC(=O)[C@@H]2CCCN2C(=O)[C@H](CO)NC(=O)[C@H](CCCNC(=N)N)NC(=O)[C@@H]2CSSC[C@H](NC(=O)[C@@H](N)[C@@H](C)O)C(=O)N[C@@H](CCCNC(=N)N)C(=O)N[C@@H](CO)C(=O)N[C@@H](CO)C(=O)NCC(=O)N[C@@H](CCCNC(=N)N)C(=O)N[C@@H](Cc3ccc(O)cc3)C(=O)N2)CSSC[C@@H](C(=O)N[C@H](C(=O)O)C(C)C)NC(=O)[C@H](C)NC(=O)[C@H](CC(=O)O)NC(=O)[C@H]([C@@H](C)O)NC1=O	7.85	5.25
CC[C@H](C)[C@@H]1NC(=O)[C@H](CCCNC(=N)N)NC(=O)[C@H](CCCNC(=N)N)NC(=O)[C@@H]2CSSC[C@H](NC(=O)[C@H](Cc3ccc(O)cc3)NC(=O)[C@H](CCCNC(=N)N)NC(=O)CNC(=O)[C@H](CO)NC(=O)[C@H](CO)NC(=O)[C@H](CCCNC(=N)N)NC(=O)[C@@H](NC(=O)[C@@H](N)[C@@H](C)O)CSSC[C@@H](C(=O)N[C@H](C(=O)O)C(C)C)NC(=O)[C@H](C)NC(=O)[C@H](CC(=O)O)NC(=O)[C@H]([C@@H](C)O)NC1=O)C(=O)N[C@@H](C)C(=O)N[C@@H](CO)C(=O)N1CCC[C@H]1C(=O)N[C@@H](Cc1ccc(O)cc1)C(=O)N[C@@H](CC(=O)O)C(=O)N[C@@H](CCCNC(=N)N)C(=O)N[C@@H](CCCNC(=N)N)C(=O)N[C@@H](CCCNC(=N)N)C(=O)N[C@@H](CCCNC(=N)N)C(=O)N[C@@H](Cc1ccc(O)cc1)C(=O)N2 (HELM PEPTIDE1{T.C.R.S.S.G.R.Y.C.A.S.P.Y.D.R.R.R.R.Y.C.R.R.I.T.D.A.C.V}$PEPTIDE1,PEPTIDE1,2:R3-27:R3|PEPTIDE1,PEPTIDE1,9:R3-20:R3$$$V2.0)	7.46	5.06
CC[C@H](C)[C@@H]1NC(=O)[C@H](CCCNC(=N)N)NC(=O)[C@H](CCCNC(=N)N)NC(=O)[C@@H]2CSSC[C@H](NC(=O)[C@H](C)NC(=O)[C@H](CCCNC(=N)N)NC(=O)CNC(=O)[C@H](CO)NC(=O)[C@H](CO)NC(=O)[C@H](CCCNC(=N)N)NC(=O)[C@@H](NC(=O)[C@@H](N)[C@@H](C)O)CSSC[C@@H](C(=O)N[C@H](C(=O)O)C(C)C)NC(=O)[C@H](C)NC(=O)[C@H](CC(=O)O)NC(=O)[C@H]([C@@H](C)O)NC1=O)C(=O)N[C@@H](CCCNC(=N)N)C(=O)N[C@@H](CO)C(=O)N1CCC[C@H]1C(=O)N[C@@H](Cc1ccc(O)cc1)C(=O)N[C@@H](CC(=O)O)C(=O)N[C@@H](CCCNC(=N)N)C(=O)N[C@@H](CCCNC(=N)N)C(=O)N[C@@H](CCCNC(=N)N)C(=O)N[C@@H](CCCNC(=N)N)C(=O)N[C@@H](Cc1ccc(O)cc1)C(=O)N2 (HELM PEPTIDE1{T.C.R.S.S.G.R.A.C.R.S.P.Y.D.R.R.R.R.Y.C.R.R.I.T.D.A.C.V}$PEPTIDE1,PEPTIDE1,2:R3-27:R3|PEPTIDE1,PEPTIDE1,9:R3-20:R3$$$V2.0)	6.92	5.13
